The values below are quoted from earlier work in PubChem BioAssay AID1259409 (Chemical Carcinogenesis Research Information System (CCRIS), 2018).

Each structure is given as a SMILES string.

The data set relates to rodent chemically induced tumor inhibition, incidence and multiplicity. Nature of the data set: CCRIS tumor inhibitor studies.

Consider `CN(C)CCOc1ccc(/C(=C(/CCCl)c2ccccc2)c2ccccc2)cc1`, for which the “tumour outcome (control, treated, inhibition, significance)” value was 8/24 (33%), 1/19 (5%), 85%, p< 0.01 (Carcinogen: N-METHYL-N-NITROSOUREA (684-93-5), Dose [Inhibitor]: 0, 0.2 MG/30 G BW ONCE EVERY 4 WK BEGINNING 1 WK POST CARCINOGEN DOSE (STUDY DURATION: 31 WK), Route [Inhibitor]: SUBCUTANEOUS, Species: MOUSE, Strain/Sex: ICR/FEMALE, Target Tissue: Type of Lesion: UTERUS: ENDOMETRIAL ADENOCARCINOMA, Dose [Carcinogen]: 1 MG/100 G BW IN 0.1 ML SALINE ONCE AT 10 WKS OF AGE, Promoter: 17 BETA-ESTRADIOL (50-28-2)) and 100%, 46%, 54%, p<0.05 (Carcinogen: N-METHYL-N-NITROSOUREA, 684-93-5, Dose [Inhibitor]: 0, 100 MG/KG IN DIET FOR 28 D THEN REDUCED TO 50 MG/KG IN DIET FOR THE DURATION OF STUDY (STUDY DURATION: 187 D), Route [Inhibitor]: ORAL, Species: RAT, Strain/Sex: SPRAGUE-DAWLEY/FEMALE, Target Tissue: Type of Lesion: MAMMARY GLAND: TUMOR, Dose [Carcinogen]: 50 MG/KG BW ONCE, Promoter: NONE USED). On to `O=C(O)[C@H](O)[C@@H](O)[C@H](O)[C@H](O)CO`, for which the “tumour outcome (control, treated, inhibition, significance)” value is, setting by setting: (Carcinogen: 1,2-DIMETHYLHYDRAZINE DIHYDROCHLORIDE, 306-37-6, Dose [Inhibitor]: 0, 1% IN DIET FOR 8 MO BEGINNING 2 WK POST CARCINOGEN (STUDY DURATION: 8 MO, 2 WK), Route [Inhibitor]: ORAL, Species: RAT, Strain/Sex: F344/MALE, Target Tissue: Type of Lesion: COLON: TUMOR, Dose [Carcinogen]: 200 MG/KG IN 0.9% NACL ONCE) 15/27 (56%), 17/28 (61%), -9%, not significant; (Carcinogen: 1,2-DIMETHYLHYDRAZINE DIHYDROCHLORIDE, 306-37-6, Dose [Inhibitor]: 0, 2% IN DIET FOR 8 MO BEGINNING 2 WK POST CARCINOGEN (STUDY DURATION: 8 MO, 2 WK), Route [Inhibitor]: ORAL, Species: RAT, Strain/Sex: F344/MALE, Target Tissue: Type of Lesion: COLON: TUMOR, Dose [Carcinogen]: 200 MG/KG IN 0.9% NACL ONCE) 15/27 (56%), 7/17 (41%), 27%, not significant. For the molecule `CC(O)CCC(=O)c1cccs1` (stereo unspecified), for the setting “Carcinogen: 4-(METHYLNITROSAMINO)-1-(3-PYRIDYL)-1-BUTANONE, 64091-91-4, Dose [Inhibitor]: 0, 25 UMOL IN 0.1 ML CORN OIL ONCE 2 HR PRIOR TO CARCINOGEN DOSE (STUDY DURATION: 16 WK), Route [Inhibitor]: GAVAGE, Species: MOUSE, Strain/Sex: STRAIN-A/FEMALE, Target Tissue: Type of Lesion: LUNG: ADENOMA, Dose [Carcinogen]: 10 UMOL IN 0.1 ML SALINE ONCE, Promoter: NONE USED”, the “tumour outcome (control, treated, inhibition, significance)” value is reported as 100%, 100%, 0%, not significant. On to `CSC(=S)NCc1c[nH]c2ccccc12`, for which the “tumour outcome (control, treated, inhibition, significance)” value (Carcinogen: 7,12-DIMETHYLBENZ[A]ANTHRACENE, 57-97-6, Dose [Inhibitor]: 0, 0.5% IN 0.2 ML ACETONE APPLIED 1 HR PRIOR TO PROMOTER DOSE 2/WK FOR 12 WK (STUDY DURATION: 90 D), Route [Inhibitor]: DERMAL, Species: MOUSE, Strain/Sex: CD-1/MALE, Target Tissue: Type of Lesion: SKIN: TUMOR, Dose [Carcinogen]: 50 UG IN 0.2 ML ACETONE ONCE, Promoter: 12-O-TETRADECANOYLPHORBOL-13-ACETATE, 16561-29-8) is 95%, 65%, 32%, not significant; the “tumour outcome (control, treated, inhibition, significance)” value (Carcinogen: 7,12-DIMETHYLBENZ[A]ANTHRACENE, 57-97-6, Dose [Inhibitor]: 0, 1% IN 0.2 ML ACETONE APPLIED 1 HR PRIOR TO PROMOTER DOSE 2/WK FOR 12 WK (STUDY DURATION: 90 D), Route [Inhibitor]: DERMAL, Species: MOUSE, Strain/Sex: CD-1/MALE, Target Tissue: Type of Lesion: SKIN: TUMOR, Dose [Carcinogen]: 50 UG IN 0.2 ML ACETONE ONCE, Promoter: 12-O-TETRADECANOYLPHORBOL-13-ACETATE, 16561-29-8) is 95%, 50%, 50%, p<0.03; the “tumour outcome (control, treated, inhibition, significance)” value (Carcinogen: 7,12-DIMETHYLBENZ[A]ANTHRACENE, 57-97-6, Dose [Inhibitor]: 0, 1% IN 0.2 ML ACETONE APPLIED 1 HR PRIOR TO PROMOTER DOSE 2/WK FOR 12 WK BEGINNING 5 D PRIOR TO CARCINOGEN DOSE (STUDY, Route [Inhibitor]: DERMAL, Species: MOUSE, Strain/Sex: CD-1/MALE, Target Tissue: Type of Lesion: SKIN: TUMOR, Dose [Carcinogen]: 50 UG IN 0.2 ML ACETONE ONCE, Promoter: 12-O-TETRADECANOYLPHORBOL-13-ACETATE, 16561-29-8) is 95%, 55%, 42%, p<0.03. With `COc1ccc(C(c2ccc(OC)cc2)C(Cl)(Cl)Cl)cc1`, where the note is “Carcinogen: N-NITROSOBIS(2-HYDROXYPROPYL)AMINE, 53609-64-6, Dose [Inhibitor]: 0, 1000 PPM IN DIET FOR 27 WK BEGINNING 9 WK POST CARCINOGEN TREATMENT (STUDY DURATION: 37 WK), Route [Inhibitor]: ORAL, Species: RAT, Strain/Sex: F344/FEMALE, Target Tissue: Type of Lesion: THYROID GLAND: ADENOMA, Dose [Carcinogen]: 2000 MG/KG BW 1 WK POST BILATERAL OVARIECTOMY, Promoter: SULFADIMETHOXINE, 122-11-2”, the outcome is recorded as 0/12 (0%), 2/15 (13%), not significant. Besides, where the note is “Carcinogen: N-NITROSOBIS(2-HYDROXYPROPYL)AMINE, 53609-64-6, Dose [Inhibitor]: 0, 1000 PPM IN DIET FOR 27 WK BEGINNING 9 WK POST CARCINOGEN TREATMENT (STUDY DURATION: 37 WK), Route [Inhibitor]: ORAL, Species: RAT, Strain/Sex: F344/FEMALE, Target Tissue: Type of Lesion: THYROID GLAND: CARCINOMA, Dose [Carcinogen]: 2000 MG/KG BW 1 WK POST BILATERAL OVARIECTOMY, Promoter: SULFADIMETHOXINE, 122-11-2”, the “tumour outcome (control, treated, inhibition, significance)” value is recorded as 10/12 (83%), 6/15 (40%), 52%, p<0.05. With `CCCCCCC[Se]C#N`, the “tumour outcome (control, treated, inhibition, significance)” value (Carcinogen: 7,12-DIMETHYLBENZ[A]ANTHRACENE, 57-97-6, Dose [Inhibitor]: 0.1, 2 PPM (SELENIUM) IN DIET FOR 3 WK BEGINNING 2 WK PRIOR TO CARCINOGEN DOSE (STUDY DURATION: 25 WK), Route [Inhibitor]: ORAL, Species: RAT, Strain/Sex: SPRAGUE-DAWLEY/FEMALE, Target Tissue: Type of Lesion: MAMMARY GLAND: TUMOR, Dose [Carcinogen]: 10 MG ONCE, Promoter: NONE USED) is 25/30 (83%), 11/30 (37%), 55%, p<0.05.
